Measurements reported in ChEMBL document CHEMBL1136833, “Novel non-peptide inhibitors targeting death receptor-mediated apoptosis” (Bioorg Med Chem Lett, 2003).
Activity calls are given as the source filed them. The rule behind the calls is not given here.

Columns and labels:
Jurkat [1] = experiment: Effective dose to inhibit FasL-induced apoptosis in Jurkat cells (Type II); assay type: functional; conditions: Homo sapiens, read-out: ED50 (the source's name)
Jurkat [2] = experiment: Effective dose to inhibit staurosporine-induced apoptosis in Jurkat cells (Type II); assay type: functional; conditions: Homo sapiens, read-out: ED50 (the source's name)
Jurkat [3] = experiment: Cytotoxicity against Jurkat cell growth (Type II); assay type: functional, cell-based; conditions: Homo sapiens
SKW 6.4 [4] = experiment: Cytotoxicity against SK W6.4 cell growth (Type I); assay type: functional, cell-based; conditions: Homo sapiens
SKW 6.4 [5] = experiment: Effective dose to inhibit staurosporine-induced apoptosis in SK W6.4 cells (Type I); assay type: functional; conditions: Homo sapiens, read-out: ED50 (the source's name)
SKW 6.4 [6] = experiment: Effective dose to inhibit FasL-induced apoptosis in SK W6.4 cells (Type I); assay type: functional; conditions: Homo sapiens, read-out: ED50 (the source's name)
Jurkat [7] = experiment: Effective dose to inhibit FasL-induced apoptosis in Jurkat cells (Type II); NE=no effect; assay type: functional, cell-based; conditions: Homo sapiens
Jurkat [8] = experiment: Effective dose to inhibit staurosporine-induced apoptosis in Jurkat cells (Type II); NE=no effect; assay type: functional, cell-based; conditions: Homo sapiens
SKW 6.4 [9] = experiment: Effective dose to inhibit FasL-induced apoptosis in SK W6.4 cells (Type I); NE=no effect; assay type: functional, cell-based; conditions: Homo sapiens
SKW 6.4 [10] = experiment: Effective dose to inhibit staurosporine-induced apoptosis in SK W6.4 cells (Type I); NE=no effect; assay type: functional, cell-based; conditions: Homo sapiens

| SMILES | EC50 (Jurkat [1]) [µM] | EC50 (Jurkat [2]) [µM] | IC50 (Jurkat [3]) [µM] | IC50 (SKW 6.4 [4]) [µM] | EC50 (SKW 6.4 [5]) [µM] | EC50 (SKW 6.4 [6]) [µM] | ED50 (Jurkat [7]) | ED50 (Jurkat [8]) | ED50 (SKW 6.4 [9]) | ED50 (SKW 6.4 [10]) |
| --- | --- | --- | --- | --- | --- | --- | --- | --- | --- | --- |
| C/C=C/C1=C(CO)[C@H](OC)[C@H]2O[C@H]2C1=O | 25 | > 80 | > 80 | > 80 | > 80 | 20 | – | – | – | – |
| C/C=C/C1=C(CO)C(=O)[C@H]2O[C@H]2C1=O | – | – | 8 | 9 | – | – | inactive | inactive | inactive | inactive |
| C/C=C/C1=C(CO)[C@@H](O)[C@@H]2O[C@@H]2C1=O | 25 | > 80 | 60 | 80 | > 80 | 20 | – | – | – | – |
| O=C1C=C(CO)[C@H](O)[C@H]2O[C@@H]12 | 18 | > 80 | > 80 | > 80 | > 80 | 10 | – | – | – | – |
| O=C1C(/C=C/c2ccccc2)=C(CO)[C@H](O)[C@H]2O[C@@H]12 | – | – | 20 | 30 | – | – | inactive | inactive | inactive | inactive |
| C/C=C/C1=C(CO)[C@H](O)[C@H]2O[C@H]2C1=O | 6 | > 80 | > 80 | > 80 | > 80 | 5 | – | – | – | – |
| C=CC1=C(CO)[C@H](O)[C@H]2O[C@H]2C1=O | 6 | > 80 | > 80 | > 80 | > 80 | 4 | – | – | – | – |
| CCCC/C=C/C1=C(CO)C(=O)[C@H]2O[C@H]2C1=O | – | – | 10 | 7 | – | – | inactive | inactive | inactive | inactive |
| CCCC/C=C/C1=C(CO)[C@H](O)[C@H]2O[C@H]2C1=O | – | – | 15 | 35 | – | 10 | inactive | inactive | – | inactive |
| C/C=C(\C)C1=C(CO)[C@H](O)[C@H]2O[C@H]2C1=O | 10 | > 80 | > 80 | > 80 | > 80 | 10 | – | – | – | – |
